The target in test [1] is T1, human liver-derived metalloprotease (Homo sapiens, UniProt Q99542).
T1 sequence (Q99542 98-508): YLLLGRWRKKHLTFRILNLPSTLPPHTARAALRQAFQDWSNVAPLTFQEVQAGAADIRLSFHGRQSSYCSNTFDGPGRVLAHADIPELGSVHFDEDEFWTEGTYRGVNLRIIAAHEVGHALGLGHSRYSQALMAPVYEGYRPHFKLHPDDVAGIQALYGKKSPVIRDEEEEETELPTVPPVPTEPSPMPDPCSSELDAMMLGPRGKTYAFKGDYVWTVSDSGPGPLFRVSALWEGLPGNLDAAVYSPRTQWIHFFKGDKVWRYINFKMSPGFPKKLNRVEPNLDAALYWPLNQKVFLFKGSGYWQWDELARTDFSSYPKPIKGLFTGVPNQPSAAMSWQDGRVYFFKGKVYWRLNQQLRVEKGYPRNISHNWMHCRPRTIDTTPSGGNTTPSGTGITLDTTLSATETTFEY
In words: Inhibitor screening system with fluorogenic substrate DNP-Pro-Cha-Abu-Cys(Me)-His-Ala-Lys(N-Me-Abz)-NH2. The class given is biochemical. Further details: the objective metalloprotease of about 46 kDa was eluted with buffer E (QIAexpress System); 6xHis (vector-encoded N-terminal tag of pQE30); made in house; host or cells: Escherichia coli JM109/pNHMB. To be noted: 10 μM substrate, 37° C., 16 hours, excitation 365 nm, emission 460 nm; read-out: 50% inhibitory concentration of metalloprotease activity. As for the experimental part: A 96-well plate (Fluoro B Plate, Dainippon Pharmaceutical) was filled in with 30 μL of buffer (0.25 M Tris-HCl (pH 8.0), 5 mM CaCl2, 100 mM NaCl, 10 μM ZnCl2) and 20 μL of the recombinant human liver-derived metalloprotease (2.4 mg/ml) obtained in Example 5. […] When actinonin (Peptide Institute), a metalloprotease inhibitor, was added at a varying concentration to this reaction mixture, it inhibited metalloprotease activity with a 50% inhibitory concentration of about 10 μM. It was, therefore, clear that this assay system can be used for the screening of inhibitors of the human liver-derived metalloprotease.

For test [2], the target named is T1, human liver-derived metalloprotease. In words: PER assay of casein hydrolyzing activity in culture supernatant of COS-7 cells transfected with pTB1921. Further details: expressed in transfected cells; host or cells: COS-7. It counts as biochemical. The following applies: supernatant activated with 1 mM aminophenyl-mercuric acetate, 37° C., 30 minutes. The method, then:
Add aminophenyl mercuric acetate (final concentration 1 mM) to the protein of the present invention and react at 37° C. for 30 minutes. Electrophorese the reaction mixture on SDS-polyacrylamide gels (non-reducing) in accordance with PER (F. T. Lundy et al., Electrophoresis, 16, 43, 1995). Then, saturate the polyacrylamide gels with the substrate and react in the reaction medium at 37° C. for 16 hours. After the reaction, stain the gels with CBB to detect a proteolytic activity.
The pTB1921 obtained in Example 1, which had been inserted into the expression plasmied pCMV·SPORT (GIBCO/BRL), was used for expression in animal cells. The COS-7 cell line (purchased from the Institute for Fermentation, Osaka) was cultured in serum-containing DMEM and subcultured on the day before introduction of the gene. When the culture became 50% confluent, the COS-7 cells were washed with serum-free DMEM, and 2.5 ml of serum-free medium was added. […]
To the cell culture supernatant obtained in Example 2 was added aminophenyl-mercuric acetate (final concentration 1 mM) and the reaction was carried out at 37° C. for 30 minutes. The activity was then determined by the PER assay (F. T. Lundy et al., Electrophoresis, 16, 43, 1995). As a result, casein hydrolyzing activity which was not found in the mock culture supernatant was detected in the culture supernatant of COS-7 cells transfected with pTB1921.

Regarding `CCCCC[C@H](CC(=O)NO)C(=O)N[C@H](C(=O)N1CCC[C@H]1CO)C(C)C` [actinonin], in test [1], the IC50 was around 10 µM.

With `c1cnc2c(c1)ccc1cccnc12` [o-phenanthroline], the “inhibition of casein hydrolyzing activity” value in test [2] is reported as “inhibited”.

The values above are taken from patent US7001997B2, “Proteins, their production and use” (Takeda Chemical Industries, Ltd., priority 1996, dated 2006).
